From patent publication US10947274B1 (priority 2018, dated 2021)
Where a SMILES comes first, the peptide text is derived from it. Bridges are numbered along the chain shown (N, C = ends). [ ]: non-standard residue; d: D form. Sec = N[C@@H](C[SeH])C(=O)O

Columns and labels:
[1] = target: rat α9α10 nAChR (Rattus norvegicus, UniProt P43144+Q9JLB5); assay: cell-based
[2] = target: α3β4 nAChR (Rattus norvegicus, UniProt P04757+P12392); conditions: cited from earlier work
Chain of α3β4 nAChR (P04757 26-499 limits assumed): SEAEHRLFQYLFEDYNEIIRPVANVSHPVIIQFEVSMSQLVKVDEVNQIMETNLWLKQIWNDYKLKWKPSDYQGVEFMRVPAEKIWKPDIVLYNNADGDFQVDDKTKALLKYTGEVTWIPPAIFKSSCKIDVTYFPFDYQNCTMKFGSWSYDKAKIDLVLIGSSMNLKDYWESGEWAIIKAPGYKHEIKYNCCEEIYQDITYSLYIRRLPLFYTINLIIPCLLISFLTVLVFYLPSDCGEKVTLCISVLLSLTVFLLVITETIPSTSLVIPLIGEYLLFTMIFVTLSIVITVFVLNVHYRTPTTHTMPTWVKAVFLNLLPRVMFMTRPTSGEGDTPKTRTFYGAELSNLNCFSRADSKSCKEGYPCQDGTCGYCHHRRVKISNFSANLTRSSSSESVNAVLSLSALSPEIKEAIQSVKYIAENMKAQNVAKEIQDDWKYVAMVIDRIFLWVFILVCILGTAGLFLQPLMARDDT
Chain of α3β4 nAChR (P12392 21-495 limits assumed): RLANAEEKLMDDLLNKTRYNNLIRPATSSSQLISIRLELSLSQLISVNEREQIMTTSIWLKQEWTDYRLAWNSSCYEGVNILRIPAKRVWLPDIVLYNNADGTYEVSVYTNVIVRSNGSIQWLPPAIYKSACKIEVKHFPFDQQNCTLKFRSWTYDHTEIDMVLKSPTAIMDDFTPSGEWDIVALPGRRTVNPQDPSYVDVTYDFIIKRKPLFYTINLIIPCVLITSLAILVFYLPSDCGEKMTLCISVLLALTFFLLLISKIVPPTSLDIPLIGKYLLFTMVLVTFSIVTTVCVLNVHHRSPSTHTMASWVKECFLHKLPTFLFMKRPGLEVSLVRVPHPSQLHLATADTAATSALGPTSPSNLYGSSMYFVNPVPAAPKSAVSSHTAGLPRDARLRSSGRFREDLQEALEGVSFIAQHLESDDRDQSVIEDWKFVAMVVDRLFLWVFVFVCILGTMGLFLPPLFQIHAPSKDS

Chain of rat α9α10 nAChR (P43144 26-479 limits assumed): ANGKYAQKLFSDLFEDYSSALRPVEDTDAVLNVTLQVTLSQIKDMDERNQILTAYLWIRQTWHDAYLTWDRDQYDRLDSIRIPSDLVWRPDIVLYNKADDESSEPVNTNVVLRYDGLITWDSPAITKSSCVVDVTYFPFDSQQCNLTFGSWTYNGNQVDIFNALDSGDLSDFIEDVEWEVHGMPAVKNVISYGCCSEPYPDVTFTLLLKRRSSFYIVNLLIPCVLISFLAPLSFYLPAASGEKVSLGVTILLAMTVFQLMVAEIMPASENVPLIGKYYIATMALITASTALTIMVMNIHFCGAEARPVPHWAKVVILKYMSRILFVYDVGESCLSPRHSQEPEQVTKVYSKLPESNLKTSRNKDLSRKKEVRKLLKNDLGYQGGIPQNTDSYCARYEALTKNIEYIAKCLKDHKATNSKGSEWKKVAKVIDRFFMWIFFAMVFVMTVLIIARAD
Chain of rat α9α10 nAChR (Q9JLB5 25-447 limits assumed): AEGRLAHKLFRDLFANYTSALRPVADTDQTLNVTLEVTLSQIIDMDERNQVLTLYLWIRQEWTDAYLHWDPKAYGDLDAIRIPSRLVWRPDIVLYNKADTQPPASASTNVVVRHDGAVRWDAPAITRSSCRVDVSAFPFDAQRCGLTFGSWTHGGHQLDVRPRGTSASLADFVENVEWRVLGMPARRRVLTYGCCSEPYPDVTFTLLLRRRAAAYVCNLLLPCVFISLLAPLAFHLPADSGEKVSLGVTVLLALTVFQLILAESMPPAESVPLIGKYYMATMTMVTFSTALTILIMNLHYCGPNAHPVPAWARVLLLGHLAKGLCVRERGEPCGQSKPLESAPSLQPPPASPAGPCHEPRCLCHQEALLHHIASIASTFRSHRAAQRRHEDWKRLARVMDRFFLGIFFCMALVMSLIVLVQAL

Molecule | % block [1] | IC50 [1] [µM] | IC50 [2] [µM]
N=C(N)NCCC[C@H](NC(=O)[C@@H]1C[Se][Se]C[C@@H]2NC(=O)[C@@H](NC(=O)CN)CSSC[C@H](NC(=O)[C@H](CCCNC(=N)N)NC(=O)[C@@H]3CCCN3C(=O)[C@H](CC(=O)O)NC(=O)[C@H](CO)NC2=O)C(=O)N[C@@H](CCCNC(=N)N)C(=O)N[C@@H](Cc2ccc(O)cc2)C(=O)N[C@@H](CCCNC(=N)N)C(=O)N1)C(=O)O [[C3 Sec;C12Sec] RgIA] (H-GC[Sec]SDPRCRYR[Sec]R-OH; disulfide 2-8; diselenide 3-12) | <10 nM (81.9 ± 1.8% block at 10 nM) | < 0.01 | 
α-conotoxin AuIB |  |  | 3.1 ± 1
